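Values below derive from 48-hour exposures of cells grown in 96-well plates, with endpoints linearly interpolated between the two concentrations bracketing the appropriate inhibition level. TGI marks complete inhibition of growth.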
What was measured:
Experiment in all cases: inhibition of tumour cell growth, NCI panel, 48 h
SK-MEL-2 melanoma = test system: SK-MEL-2 melanoma
SR leukemia = test system: SR leukemia
HOP-62 NSCLC = test system: HOP-62 NSCLC
HS 578T breast = test system: HS 578T breast
K-562 leukemia = test system: K-562 leukemia
UACC-62 melanoma = test system: UACC-62 melanoma
HL-60(TB) leukemia = test system: HL-60(TB) leukemia
PC-3 prostate = test system: PC-3 prostate
MCF7 breast = test system: MCF7 breast
SK-MEL-5 melanoma = test system: SK-MEL-5 melanoma
MDA-MB-435 = test system: MDA-MB-435
RPMI-8226 leukemia = test system: RPMI-8226 leukemia
LOX IMVI melanoma = test system: LOX IMVI melanoma
NCI-H460 lung = test system: NCI-H460 lung
A549 NSCLC = test system: A549 NSCLC
OVCAR-8 ovarian = test system: OVCAR-8 ovarian
BT-549 breast = test system: BT-549 breast

Row | SMILES | TGI (SK-MEL-2 melanoma) [µM] | TGI (SR leukemia) [µM] | TGI (HOP-62 NSCLC) [µM] | TGI (HS 578T breast) [µM] | TGI (K-562 leukemia) [µM] | TGI (UACC-62 melanoma) [µM] | TGI (HL-60(TB) leukemia) [µM] | TGI (PC-3 prostate) [µM] | TGI (MCF7 breast) [µM] | TGI (SK-MEL-5 melanoma) [µM] | TGI (MDA-MB-435) [µM] | TGI (RPMI-8226 leukemia) [µM] | TGI (LOX IMVI melanoma) [µM] | TGI (NCI-H460 lung) [µM] | TGI (A549 NSCLC) [µM] | TGI (OVCAR-8 ovarian) [µM] | TGI (BT-549 breast) [µM]
1 | C=CCNC(=S)N/C=C(\C#N)C(N)=O | > 100 | > 100 | > 100 | > 100 | > 100 | > 100 | > 100 | > 100 | > 100 | > 100 | > 100 | > 100 | > 100 | > 100 | > 100 | > 100 | 
2 | C=C1C(=O)O[C@@H]2/C=C(C)/C=C\[C@@H]3O[C@@]3(C)C[C@@H](O)C12 (some centres undefined) | > 100 |  | > 100 | > 100 | 20.6 | 27.2 | 8.93 | 73.2 | 26.4 | 29 | 39.6 | 18.7 | 22.2 | 73.3 | > 100 | 55.1 | 
3 | O=[N+]([O-])c1ccc2nc(Nc3ccccc3)c(Nc3ccccc3)nc2c1 | 4.49 | > 100 | 2.45 | 8.75 | > 100 | 2.23 | 40.4 | 10.3 |  | 2.82 | 4.4 | > 100 | 3.14 | 1.61 | 2.36 | 6.45 | 
4 | CCOC(=O)c1cc(-c2ccc(OC)cc2)c([N+](=O)[O-])n1C | > 10 | > 10 |  | > 10 | > 10 | > 10 | > 10 |  |  |  | > 10 |  |  | > 10 | > 10 | > 10 | > 10
5 | NC(Cc1ccccc1)C(=O)NC(Cc1ccccc1)NC(=O)C(Cc1c[nH]c2ccccc12)C(=O)O (centres undefined) | > 100 | > 100 | > 100 | > 100 |  | > 100 | > 100 | > 100 | > 100 | > 100 | > 100 | > 100 | > 100 | > 100 | > 100 | > 100 | 
6 | COCCOCOC(CCCCO)c1cc(C)c(O[Si](C)(C)C(C)(C)C)c(C)c1 (centres undefined) | 21.9 |  | 23 |  | 16.3 | 25.4 | 6.02 |  |  | 12.8 |  | 11.6 | 18.7 | 20.2 | 16.1 | 18.7 | 
7 | CC(=O)OCCOCNC(=S)N/N=C/c1ccc([N+](=O)[O-])o1 | > 100 |  | > 100 |  | > 100 | > 100 | 39.2 |  |  | > 100 |  |  | > 100 | > 100 | > 100 | > 100 | 
8 | COc1cc(C2C(Cl)C(=O)N2n2cnc3ccccc3c2=O)ccc1O (centres undefined) | > 100 | > 100 | > 100 |  |  | > 100 |  |  |  | > 100 |  | > 100 | > 100 | > 100 | > 100 | > 100 | 
9 | COc1cc(-c2cccs2)sc1-c1cccs1 | > 100 | 61.8 |  |  | 51.5 | > 100 | 36.6 |  |  | > 100 |  | > 100 | > 100 | > 100 | > 100 | > 100 | 

Reference: PubChem BioAssay (NCI)
